Source: the NIST ThermoML archive (doi:10.1021/je900042q)
Numbers after ± are expanded uncertainties.

Columns and labels:
[1] = refractive index (Na D-line) (dimensionless); conditions: 298.15 K; 101.33 kPa; Liquid; Standard Abbe refractometry
[2] = Liquid; for mass density: 298.15 K, 101.33 kPa; for vapor or sublimation pressure: Ebulliometric method (Recirculating still)

| SMILES | refractive index [1] | mass density [2] [kg/m3] | vapor or sublimation pressure ([2]; 355.35 K) [kPa] | vapor or sublimation pressure ([2]; 418.69 K) [kPa] | vapor or sublimation pressure ([2]; 341.49 K) [kPa] |
| --- | --- | --- | --- | --- | --- |
| CC(C)O [propan-2-ol] | 1.3754 ± 0.0005 | 782.69 ± 0.24 | 101.3 ± 0.2 | – | – |
| CCCCOC(=O)CC [butyl propanoate] | 1.3992 ± 0.0005 | 870.88 ± 0.65 | – | 101.3 ± 0.3 | – |
| CC(C)OC(C)C [diisopropyl ether] | 1.3652 ± 0.0005 | 718.32 ± 0.96 | – | – | 101.3 ± 0.3 |
